# Experimental data taken from patent publication US5399552A, “Antibiotic peptides bearing aminoalkylthioether moieties” (Merck & Co, Inc, priority 1991, dated 1995).
# How the values were obtained:
# Pneumocystis carinii = Pneumocystis carinii pneumonia in immunosuppressed rats, lung cysts; type: in vivo, Sprague-Dawley rats; conditions: sc twice daily for four days, compared with untreated or solvent controls
# Description: The compounds of the present invention may also be useful for inhibiting or alleviating Pneumocystis carinii infections in immune compromised patients. […] Before drug treatment, two rats are sacrificed to confirm the presence of Pneumocystis carinii pneumonia (PCP). Five rats (weighing approximately 150 grams) are injected twice daily for four days subcutaneously (sc) with Compound A-Ia in 0.25 ml of vehicle (distilled water). A vehicle control is also carried out. All animals continue to receive dexasone in the drinking water and low protein diet during the treatment period. At the completion of the treatment, all animals are sacrificed, the lungs are removed and processed, and the extent of disease determined by microscopic examination of stained slides for the presence of cysts.
# C. Albicans MY 1028 = experiment: Minimum fungicidal concentration (MFC), microbroth dilution assay in YNBD; type: cell-based, Candida albicans; conditions: 35° C. 24 hours, then SDA 24 hours at 28° C.
# Description: (§1) The compounds of the present invention are active against many fungi and particularly against Candida species. The antifungal properties may be illustrated with the minimum fungicidal concentration (MFC) determination against certain Candida organisms in a microbroth dilution assay carried out in a Yeast Nitrogen Base (Difco) medium with 1% dextrose (YNBD).
# (§2) In carrying out the assay, Compound A-Ia was solubilized in 10 percent dimethyl sulfoxide (DMSO) and diluted to 2560 μg/ml. The compound was then diluted to 256 μg/ml in YNBD.
# (§3) The yeast cultures, maintained on Sabouraud dextrose agar were transferred to YN broth (Difco) and incubated overnight at 35° C. with shaking (250 rpm). After incubation, each culture was diluted in sterile water to yield a final concentration of 1-5×10^6 colony forming units (CFU)/ml.
# (§4) 96-well microplates were inoculated using a MIC-2000 (Dynatech) which delivers […] per well yielding a final inoculum per well of 1.5-7.5×10^3 cells. The microplates were incubated at 35° C. for 24 hours. The minimum inhibitory concentrations (MICs) were recorded as the lowest concentrations of drug showing no visible growth.
# (§5) After recording the MIC, the plates were shaken to resuspend the cells. Thereafter, 1.5 μl samples from the wells in the 96-well microplate were transferred to a single well tray containing Sabouraud dextrose agar. The inoculated trays were incubated 24 hours at 28° C. and then read for minimum fungicidal concentration (MFC). MFC is defined as the lowest concentration of drug showing no growth or less than 4 colonies per spot.
# C. Albicans MY 1055 = experiment: as above; type: cell-based, Candida albicans; conditions: 35° C. 24 hours, then SDA 24 hours at 28° C.
# Description: as §1, §2, §3, §4, §5
# C. Albicans MY 1730 = experiment: as above; type: cell-based, Candida albicans; conditions: 35° C. 24 hours, then SDA 24 hours at 28° C.
# Description: as §1, §2, §3, §4, §5
# C. tropicalis MY 1012 = experiment: as above; type: cell-based, Candida tropicalis; conditions: 35° C. 24 hours, then SDA 24 hours at 28° C.
# Description: as §1, §2, §3, §4
# (§6) After recording the MIC, the plates were shaken to resuspend the cells. […] The inoculated trays were incubated 24 hours at 28° C. and then read for minimum fungicidal concentration (MFC). […]
# [1] = tested on: C. pseudotropicalis MY 1100; experiment: as above; type: cell-based, Candida pseudotropicalis; conditions: 35° C. 24 hours, then SDA 24 hours at 28° C.
# Description: as §1, §2, §3, §4, §6
# Candida albicans MY 1055 = experiment: In vivo effectiveness in mice infected I.V. with Candida albicans, kidney CFU; set-up: species or system female DBA/2 mice; conditions: 0.4 mg/kg I.P. twice daily for four consecutive days; kidneys of DBA/2 mice after seven days
# Description: Growth from an overnight SDA culture of Candida albicans MY 1055 was suspended in sterile saline and the cell concentration determined by hemacytometer count and the cell suspension adjusted to 3.75 x 10^5 cells/mi. Then 0.2 milliliter of this suspension was administered I.V. in the tail vein of mice so that the final inoculum was 7.5×10^4 cells/mouse.
# The assay then was carried out by administering aqueous solutions of Compound A-Ia at various concentrations intraperitoneally (I.P.), twice daily (b.i.d.) for four consecutive days to 18 to 20 gram female DBA/2 mice, which previously had been infected with Candida albicans in the manner described above. Distilled water was administered I.P. to C. albicans challenged mice as controls. After seven days, the mice were sacrificed by carbon dioxide gas, paired kidneys were removed aseptically and placed in sterile polyethylene bags containing 5 milliters of sterile saline. The kidneys were homogenized in the bags, serially diluted in sterile saline and aliquots spread on the surface of SDA plates. The plates were incubated at 35° C. for 48 hours and yeast colonies were enumerated for determination of colony forming units (CFU) per gram of kidneys. Compound A-Ia gave 99 percent reduction of recoverable Candida CFUs at 0.4 mg/kg I.P. twice daily for four consecutive days.
# C. parapsilosis MY 1010 = experiment: Minimum fungicidal concentration (MFC), microbroth dilution assay in YNBD; type: cell-based, Candida parapsilosis; conditions: 35° C. 24 hours, then SDA 24 hours at 28° C.
# Description: as §1, §2, §3, §4, §6
substance,measurement,setting,value
"1-[4-hydroxy-5-aminoethylthio-N^2 -(10,12-dimethyl-1-oxotetradecyl)ornithine]-5-(3-hydroxyglutamine)-6-(3-hydroxyproline)echinocandin B trifluoroacetate [Compound A-Ia]",extent of disease: cysts in stained slides from the lungs,Pneumocystis carinii,prevention of or reduction of cysts
same,MFC,C. Albicans MY 1028,0.5 µg/mL
same,MFC,C. Albicans MY 1055,0.5 µg/mL
same,MFC,C. Albicans MY 1730,0.125 µg/mL
same,MFC,C. tropicalis MY 1012,0.125 µg/mL
same,MFC,[1],0.25 µg/mL
same,reduction of recoverable Candida CFUs,Candida albicans MY 1055,99%
same,MFC,C. parapsilosis MY 1010,0.25 µg/mL
